From US20100004277A1, “COMPOUNDS AND METHODS FOR MODULATING PROTEIN TRAFFICKING” (FoldRx Pharmaceuticals, Inc., priority 2006, published 2010)
Residues, ends and D or L forms follow the SMILES beside them. *: point of attachment. Cbz = O=C(OCc1ccccc1)*

Columns and labels:
[1] = test system: sar1^ts mutant yeast strain; experiment: sar1^ts mutant growth rescue assay (OD600); format: cell-based; conditions: 35° C., 72 hours, 0.05 to 50 μM
Method: The sar1st mutant yeast strain (ATCC, Manassas, Va.) carries a temperature sensitive mutant allele of the SAR1 gene, which permits the strain to grow at 25° C., but undergo growth arrest at 35° C. or higher. Inactivation of the mutant Sar1^ts protein at 35° C. prevents the formation of transport vesicles at the ER, causing a block in ER to golgi trafficking (Saito et al. (1998) J. Biochem. (Tokyo) 124(4):816-823).
To identify compounds that rescue the sar1^ts mutant phenotype, the mutant strain was first grown at 25° C. in rich media overnight. The strain was then diluted to an OD600 of 0.004 in SC media with 2% glucose, and mixed with various dilutions of test compounds (0.05 to 50 μM) in SC media with 2% glucose. The cells were then incubated at 25° C. or 35° C. for 72 hours. Rescue of the sar1^ts mutant phenotype was scored as an increase in the OD600 (concentration of the yeast cells) cultured in the presence of a test compound as compared to cells cultured cultured in the absence of the test compound.

[2] = test system: sec23-2^ts mutant yeast strain; experiment: sec23^ts mutant growth rescue assay (OD600); format: cell-based; conditions: 30° C., 24 hours, 0.05 to 50 μM
Method: The sec23-2^ts mutant yeast strain carries a temperature sensitive mutant allele of the SEC23 gene, which permits the strain to grow normally at 25° C., but undergo growth arrest at 30° C. or higher. Inactivation of the Sec23 temperature-sensitive mutant protein at the restrictive temperature prevents the formation of transport vesicles at the ER resulting in a block in ER to golgi trafficking (see, e.g., Hicke et al. (1989) EMBO J. 8(6):1677-1684 and Castillo-Flores et al. (2005) J. Biol. Chem. 280(40):34033-34041).
To identify compounds that rescue the sec23^ts mutant phenotype, the mutant strain was first grown at 25° C. in rich media overnight. The strain was then diluted to an OD600 of 0.004 in SC media with 2% glucose, and mixed with various dilutions of test compounds compounds compounds (0.05 to 50 μM) in SC media with 2% glucose. The cells were then incubated at 25° C. or 30° C. for 24 hours. Rescue of the sec23^ts mutant phenotype was scored as an increase in the OD600 of cells cultured in the presence of the a compound as compared to cells cultured in the absence of the test compound.

ypt1^ts cells = experiment: ypt1^ts mutant growth rescue assay (OD600); format: cell-based, yeast; conditions: for rescue of ypt1^ts loss of function / restoring growth of ypt1^ts: 35° C. and 37° C.
Excerpt: The yeast mutant cell line ypt1^ts suppresses, in a temperature dependent fashion, the dominant-lethal phenotype of a mutant YPT1 allele (Schmitt et al. (1988) Cell 53:635-47). The yeast mutant cell line ypt1^ts contains an allele of YPT1 that has two point mutations: one that changes an asparagine at position 121 to a isoleucine (N121I) and another that changes an alanine at position 161 to a valine (A161V). The N121I mutation causes dominant lethality by itself, but lethality is suppressed by the second mutation, resulting in a recessive loss of function phenotype at the restrictive temperatures. ypt1^ts cells grow normally at temperatures up to 25° C., but are growth arrested at 37° C. (Id.).
Compounds that rescue cells from alpha-synuclein toxicity were screened to assess their ability to restore growth of ypt1^ts cells. The effect of the compounds was measured on ypt1^ts cells cultured at room temperature (permissive temperature), 37° C. (non-permissive temperature), and 35° C. (semi-permissive temperature).
To determine if the test compounds could rescue the ypt1^ts mutant phenotype, ypt1^ts cells were grown overnight in synthetic complete (SC) media supplementd with 2% glucose at room temperature. Log phase cells were diluted into SC 2% glucose media to an OD600 of 0.003. 100 μL of this culture was then aliquoted into each well of 96-well flat bottom microtiter plates. 1 μL of the test compounds dissolved in DMSO (at a concentration range from 5 mM-0.005 mM) or of DMSO alone was added to each well (50 uM-0.05 uM final concentration in 1% DMSO). Plates were mixed by vortexing and incubated at 35° C. and 37° C. Compound rescue of the ypt1^ts temperature sensitive defect was assessed by measuring the OD600 (optical density at 600 nm; cell growth) of the cultures. Plates incubated at 35° C. were measured at 24 and 40 hours incubation time while plates grown at 37° C. were measured after 40 hours of incubation.
Assays monitoring the rescue of ypt1^ts mutants were performed using a vehicle, a positive control (calcium), active compounds obtained from the alpha-synuclein screen (Cpd. I.1 and Cpd. II.1), alpha-synuclein-active analogs of Cpd. […] I.1 (Cpd. I.4 and Cpd. I.5).

alpha-synuclein toxicity = experiment: alpha-synuclein screen (rescue of cells from alpha-synuclein toxicity); format: cell-based
ΔF508 CFTR = ΔF508 CFTR stabilization in CFBE cells, western blot; format: cell-based; conditions: 16 hours, 37° C.; for amount of cellular ΔF508 CFTR protein (band B) / amount of the glycosylated form of ΔF508 CFTR (band C): vs DMSO; for amount of glycosylated and unglycosylated ΔF508 CFTR proteins compared to absence of compound: all concentrations tested (1-10 μM)
Method: Selected compounds identified in the ypt1^ts screen were further tested for their ability to stabilize ΔF508 CTFR. CFBE cells, a cell line generated by transformation of cystic fibrosis tracheo-bronchial cells (ΔF508 CTFR homozygous) with SV40 (Bruscia et al. (2002) Gene Ther. 9(11):683-685), were cultured with 10 μM Cpd. I.3, 10 μM Cpd. II.2, or 10 μM VRT-325 for 16 hours at 37° C. (VRT-325 is described in, e.g., Van Goor et al. (2006) Am. J. Physiol. Lung Cell Mol. Physiol. 290:L1117-L1130). A population of cells was also cultured with the dimethyl sulfoxide (DMSO) solvent as a control.
Following incubation, cells were lysed, solubilized in Laemmli buffer, and subjected to SDS-PAGE. CFTR protein was visualized by western blotting using an antibody specific for CFTR. Culturing CFBE cells with Cpd. I.3 or Cpd. II.2 increased the amount of cellular ΔF508 CFTR protein (see band “B,” FIG. 3A). Cpd. I.3 and Cpd. […] The effects of Cpd. I.3 or Cpd.
Next, to test the effect of different concentrations of Cpd. I.3 and Cpd. II.2 on ΔF508 CFTR, a dose response experiment was performed. CFBE cells were grown at 37° C. for 16 hours in the presence of 1, 2.5, 5, or 10 μM Cpd. I.3 or Cpd. II.2. Following incubation, lysates were prepared from the various treated cell populations, the lysates solubilized in Laemmli buffer, and subjected to SDS-PAGE. The relative amounts of glysosylated (band “C”) and unglycosylated (band “B”) ΔF508 CFTR protein were visualized by western blotting as above (FIGS. 4A and 4C). The band intensities were quantitated by scanning and densitometry. […] I.3 (FIG. 4B) and Cpd. II.2 (FIG. 4D), respectively.

ΔF508 CFTR mutant = conditions: cell-based studies, cited from earlier work

Compound	rescue of the sar1^ts mutant phenotype [1]	rescue of the sec23^ts mutant phenotype [2]	rescue of ypt1^ts loss of function / restoring growth of ypt1^ts (ypt1^ts cells)	also measured
N/C(=N\C(=O)CCc1ccco1)Nc1nc2ccccc2o1 [Cpd. I.6]	rescue	not detected	–	–
N=C(NC(=O)[C@@H]1C[C@@H]1c1ccccc1)Nc1nc2ccccc2o1 [Cpd. I.5]	rescue	not detected	did not	activity in the alpha-synuclein screen (alpha-synuclein toxicity): inactive
N/C(=N\C(=O)C1CC1)Nc1nc2ccccc2s1 [Cpd. I.3]	rescue	rescue	rescued	rescue of the ypt1^ts mutant phenotype (ypt1^ts cells; 2.0 μM, 37° C., 40 hours): rescued; effects on stabilizing ΔF508 CFTR compared with VRT-325 (ΔF508 CFTR; 10 μM): comparable or better; amount of cellular ΔF508 CFTR protein (band B) (ΔF508 CFTR; 10 μM): increased; amount of the glycosylated form of ΔF508 CFTR (band C) (ΔF508 CFTR; 10 μM): increased; concentration at which efficacy reached a maximum (dose response curves from western blot) (ΔF508 CFTR): 1 to 2.5 µM; amount of glycosylated and unglycosylated ΔF508 CFTR proteins compared to absence of compound (ΔF508 CFTR): increase; activity in the alpha-synuclein screen (alpha-synuclein toxicity): active
O=C1CC(c2cccc(Cl)c2)c2cc3c4c(cccc4c2N1)CC3 (stereo not drawn) [II.57]	not detected	not detected	–	–
O=C1CC(c2cccc(Cl)c2)c2cc3c(cc2N1)CCC3 (stereo not drawn) [Cpd. II.3]	–	–	–	rescue of the ypt1^ts mutant phenotype (ypt1^ts cells; 5.0 μM, 37° C., 40 hours): rescued
O=C1CC(c2cccc(Cl)c2)c2ccc3c(c2N1)CCC3 (stereo not drawn) [Cpd. II.2]	not detected	not detected	–	effects on stabilizing ΔF508 CFTR compared with VRT-325 (ΔF508 CFTR; 10 μM): comparable or better; amount of cellular ΔF508 CFTR protein (band B) (ΔF508 CFTR; 10 μM): increased; amount of the glycosylated form of ΔF508 CFTR (band C) (ΔF508 CFTR; 10 μM): increased; concentration at which efficacy reached a maximum (dose response curves from western blot) (ΔF508 CFTR): 2.5 to 5 µM; amount of glycosylated and unglycosylated ΔF508 CFTR proteins compared to absence of compound (ΔF508 CFTR): increase
COc1ccc(S(=O)(=O)N2CCN(C(C)c3nc(OC4CCCCC4)c4ccccc4n3)CC2)cc1 (stereo not drawn) [VRT-325, reference compound]	–	–	–	stabilization of ΔF508 CFTR protein in CFBE cells (ΔF508 CFTR; 10 μM): stabilization
C[C@@H]1C[C@@H]([C@H](O)CC2CC(=O)NC(=O)C2)C(=O)[C@@H](C)C1 [cycloheximide, reference compound]	rescue	not detected	effective	–
O=C1CC(c2cccc(Cl)c2)c2ccc(-c3ccccc3)cc2N1 (stereo not drawn) [II.27]	not detected	not detected	–	–
COc1ccc(OC)c(C2CC(=O)Nc3c2ccc2ccccc32)c1 (stereo not drawn) [II.12]	not detected	not detected	–	–
CO[C@@H]1[C@@H](OC(N)=O)[C@@H](O)[C@H](Oc2ccc3c(O)c(NC(=O)c4ccc(O)c(CC=C(C)C)c4)c(=O)oc3c2C)OC1(C)C [novobiocin, reference compound]	–	–	effective	–
O=C1CC(c2ccccc2)c2ccc3ccccc3c2N1 (stereo not drawn) [Cpd. II.1]	not detected	not detected	rescue	activity in the alpha-synuclein screen (alpha-synuclein toxicity): active
tunicamycin [reference compound]	–	–	effective	–
N=C(NC(=O)[C@H]1C[C@@H]1c1ccccc1)Nc1nc2ccccc2o1 [Cpd. I.2]	–	–	rescued	activity in the alpha-synuclein screen (alpha-synuclein toxicity): active
N/C(=N\C(=O)C1CCCCC1)Nc1nc2ccccc2o1 [Cpd. I.4]	–	–	did not	activity in the alpha-synuclein screen (alpha-synuclein toxicity): inactive
aureobasidin [reference compound]	not detected	not detected	effective	–
CC(C)C[C@@H](C=O)NC(=O)[C@H](CC(C)C)NC(=O)[C@H](CC(C)C)NC(=O)OCc1ccccc1 [MG132, reference compound] (Cbz-Leu-Leu-Leu-aldehyde)	–	–	–	rescue of ypt1^ts loss of function (ypt1^ts cells; 37° C., 40 hours, range 0.05-50 μM, intermediate concentrations): rescued
CCC(=O)/N=C(\N)Nc1nc2ccccc2s1 [Cpd. I.1]	rescue	rescue	rescue	activity in the alpha-synuclein screen (alpha-synuclein toxicity): active
COc1cccc2c1C(=O)c1c(O)c3c(c(O)c1C2=O)C[C@@](O)(C(=O)CO)C[C@@H]3O[C@H]1C[C@H](N)[C@H](O)[C@H](C)O1 [doxorubicin, reference compound]	not detected	not detected	effective	–
[Ca+2] [calcium, reference compound]	–	–	rescued	–
CC(C)C[C@H](NC(=O)[C@H](Cc1ccccc1)NC(=O)c1cnccn1)B(O)O [bortezomib]	–	–	–	cellular chloride efflux (ΔF508 CFTR mutant; ΔF508 CFTR mutant): restoring; stabilization of the ΔF508 CFTR mutant, preventing premature degradation (ΔF508 CFTR mutant): stabilize
C#Cc1cccc(C2CC(=O)Nc3c2ccc2c3CCC2)c1 (stereo not drawn) [II.59]	not detected	not detected	–	–
